{"source": "paper PMC11252418", "about": "“Specific glycine-dependent enzyme motion determines the potency of conformation selective inhibitors of threonyl-tRNA synthetase” (Communications Biology, 2024)", "key": {"EcThrRS_G463S [1]": {"target": "T1, EcThrRS_G463S (Escherichia coli, UniProt P0A8M3, G463S)", "T1 construct": "The E. coli ThrRS (residues 242-642, Supplementary Note 1) wild type; 6xHis (C); made in house; host or cells: E. coli BL21 (DE3)", "T1 sequence (P0A8M3 242-642 G463S)": "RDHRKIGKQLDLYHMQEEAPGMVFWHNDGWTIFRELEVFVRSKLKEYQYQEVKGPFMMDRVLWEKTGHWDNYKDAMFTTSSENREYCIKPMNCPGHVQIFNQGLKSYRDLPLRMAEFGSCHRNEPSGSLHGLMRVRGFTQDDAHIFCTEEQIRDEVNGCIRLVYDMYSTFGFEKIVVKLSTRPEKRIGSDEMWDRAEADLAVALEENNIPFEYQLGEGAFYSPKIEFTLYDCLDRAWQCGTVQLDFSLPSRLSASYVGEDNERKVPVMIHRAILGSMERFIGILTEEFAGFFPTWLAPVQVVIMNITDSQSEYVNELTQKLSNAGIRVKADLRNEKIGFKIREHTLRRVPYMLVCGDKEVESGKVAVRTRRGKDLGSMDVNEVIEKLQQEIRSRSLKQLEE", "assay": "ATP hydrolysis assay", "type": "biochemical", "settings": "BN, replicates, sheet Fig.7d"}, "EcThrRS_G463S [2]": {"target": "T1, EcThrRS_G463S", "assay": "Thermal shift assay (TSA)", "type": "binding", "protocol": "(§1) The EcThrRS_WT and L489M/G463S/G463S_Q484A/G463A/A316N mutant proteins, ObaO_WT and ObaO_S464G mutant proteins were prepared at 2 μM in buffer containing 25 mM Tris-HCl pH 7.5, 200 mM NaCl, and 20 μM OB (GlpBio, US) or BN (GlpBio, US) or ddH2O in equal volumes since the compounds were diluted with ddH2O to 1 mM as stocks. […] SYPRO orange dye (Sigma, USA) was diluted in assay buffer containing 25 mM Tris-HCl pH 7.5 and 200 mM NaCl to a 40× concentration, and was added to the mixture to a final 4× concentration. Aliquots (20 μL) were added to a 96-well PCR plate. After complete mixing, the final solutions were heated from 25 to 95 °C at a rate of 0.015 °C/s, and fluorescence signals were monitored by QuantStudio 3 (Applied Biosystems by Thermo Fisher Scientific, USA). The melting temperature (Tm) was calculated through a previously established method[56],[57]."}, "EcThrRS_G463A [3]": {"target": "T2, EcThrRS_G463A (Escherichia coli, UniProt P0A8M3, G463A)", "T2 construct": "The E. coli ThrRS (residues 242-642, Supplementary Note 1) wild type; 6xHis (C); made in house; host or cells: E. coli BL21 (DE3)", "T2 sequence (P0A8M3 242-642 G463A)": "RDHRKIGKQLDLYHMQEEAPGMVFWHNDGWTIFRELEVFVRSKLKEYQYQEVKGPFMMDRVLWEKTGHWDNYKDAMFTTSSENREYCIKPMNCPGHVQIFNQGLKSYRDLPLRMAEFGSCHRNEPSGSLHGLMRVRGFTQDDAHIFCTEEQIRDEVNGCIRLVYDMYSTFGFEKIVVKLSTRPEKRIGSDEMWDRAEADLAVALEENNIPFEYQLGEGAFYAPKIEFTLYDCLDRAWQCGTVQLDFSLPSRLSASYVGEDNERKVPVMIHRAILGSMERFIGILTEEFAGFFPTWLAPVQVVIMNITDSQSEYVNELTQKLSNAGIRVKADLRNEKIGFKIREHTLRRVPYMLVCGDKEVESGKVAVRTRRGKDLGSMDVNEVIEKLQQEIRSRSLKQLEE", "assay": "Thermal shift assay (TSA)", "type": "binding", "protocol": "as §1"}, "EcThrRS_G463S [4]": {"target": "T1, EcThrRS_G463S", "assay": "ATP hydrolysis assay", "type": "biochemical", "protocol": "(§2) 200 nM EcThrRS wide type and mutants, ObaO and ObaO_S464G mutant were incubated with serially diluted OB (0 to 10 μM for EcThrRS, 0 to 40 μM for ObaO) in a buffer containing 25 mM HEPES pH 7.5, 50 mM NaCl, 40 mM MgCl2, 30 mM KCl, 0.01 mg/mL bovine serum albumin (BSA), and 0.004% Tween-20 at 37 °C for 4 h and then mixed 1:1 with a substrate mixture containing 4 μM ATP, 40 μM L-threonine, 25 mM HEPES pH 7.5, 50 mM NaCl, 40 mM MgCl2, 30 mM KCl, 0.01 mg/mL BSA, and 0.004% Tween-20. The ATP hydrolysis reaction was performed at 37 °C for 4 h.\n(§3) After incubation, the detection solution from the Kinase-Glo® luminescent kit (Promega, USA) was added to the reaction system at a 1:1 ratio, and the mixture was gently shaken for 10 min. The chemiluminescence signal was measured using a microplate reader (Tecan, USA). All experiments were performed in four replicates. The data were processed using GraphPad Prism 8 software."}, "EcThrRS_WT": {"target": "T3, EcThrRS_WT (Escherichia coli, UniProt P0A8M3)", "T3 construct": "The E. coli ThrRS (residues 242-642, Supplementary Note 1) wild type; 6xHis (C); made in house; host or cells: E. coli BL21 (DE3)", "T3 sequence (P0A8M3 242-642)": "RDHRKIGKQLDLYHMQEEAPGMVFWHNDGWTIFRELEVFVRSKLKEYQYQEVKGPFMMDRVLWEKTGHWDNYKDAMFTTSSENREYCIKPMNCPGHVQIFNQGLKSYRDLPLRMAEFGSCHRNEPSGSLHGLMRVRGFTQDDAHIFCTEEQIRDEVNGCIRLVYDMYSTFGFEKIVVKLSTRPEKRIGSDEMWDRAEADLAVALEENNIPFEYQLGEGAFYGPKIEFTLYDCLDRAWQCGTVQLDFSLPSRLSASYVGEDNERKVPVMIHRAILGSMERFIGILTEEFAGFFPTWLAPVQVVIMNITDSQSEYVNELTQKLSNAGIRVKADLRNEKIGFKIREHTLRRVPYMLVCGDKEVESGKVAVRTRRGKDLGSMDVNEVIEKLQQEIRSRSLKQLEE", "assay": "ATP hydrolysis assay", "type": "biochemical", "settings": "for ATP hydrolysis activity, inhibitory curve data point: BN, replicates, sheet Fig.7d", "protocol": "as §2, §3"}, "EcThrRS_G463A [5]": {"target": "T2, EcThrRS_G463A", "assay": "ATP hydrolysis assay", "type": "biochemical", "settings": "for ATP hydrolysis activity, inhibitory curve data point: BN, replicates, sheet Fig.7d", "protocol": "as §2, §3"}, "[6]": {"settings": "2 μM protein, 20 μM compound, mean n = 4, read-out: ΔTm (increase of Tm)"}}, "note": "Values joined by “and” are separate entries in the source; they are usually repeats but may differ in a detail not shown here. Identical values can stand only once. Like-named read-outs stand apart in the source and are kept apart here.", "data": [{"molecule": "C[C@@H]1C[C@H](C)C[C@H](C)[C@@H](O)CC(=O)O[C@H]([C@@H]2CCC[C@H]2C(=O)O)C/C=C/C=C(/C#N)[C@H](O)[C@@H](C)C1", "note": "[BN, borrelidin]", "values": [{"measurement": "ATP hydrolysis activity, inhibitory curve data point", "setting": "EcThrRS_G463S [1]; Log10 Conc. 1.477, G463S", "result": "98.112 and 97.245 and 94.519 and 96.966"}, {"measurement": "ATP hydrolysis activity, inhibitory curve data point", "setting": "EcThrRS_G463S [1]; Log10 Conc. 2.000, G463S", "result": "96.048 and 91.632 and 90.284 and 92.020"}, {"measurement": "ATP hydrolysis activity, inhibitory curve data point", "setting": "EcThrRS_G463S [1]; Log10 Conc. 2.477, G463S", "result": "91.563 and 88.959 and 88.970 and 89.661"}, {"measurement": "ATP hydrolysis activity, inhibitory curve data point", "setting": "EcThrRS_G463S [1]; Log10 Conc. 3.000, G463S", "result": "84.928 and 77.254 and 80.440 and 82.267"}, {"measurement": "ATP hydrolysis activity, inhibitory curve data point", "setting": "EcThrRS_G463S [1]; Log10 Conc. 4.000, G463S", "result": "53.455 and 58.497 and 57.343 and 60.957"}, {"measurement": "ΔTm at 20 µM", "setting": "EcThrRS_G463S [2]; [6]", "result": 17.4, "unit": "°C"}, {"measurement": "ΔTm at 20 µM", "setting": "EcThrRS_G463S [2]; source data sheet Fig.7c, ThrRS_G463S, read-out: ΔTm, single replicates", "result": 17.3, "unit": "°C"}, {"measurement": "ΔTm at 20 µM", "setting": "EcThrRS_G463A [3]; [6]", "result": 19.1, "unit": "°C"}, {"measurement": "ΔTm at 20 µM", "setting": "EcThrRS_G463A [3]; source data sheet Fig.7c, ThrRS_G463A, read-out: ΔTm, single replicates", "result": 19.1, "unit": "°C"}, {"measurement": "decrease of inhibitory effect vs EcThrRS_WT", "setting": "EcThrRS_G463S [4]; 2 μM ATP and 20 μM L-Thr", "result": "more than 20 fold"}, {"measurement": "ATP hydrolysis activity, inhibitory curve data point", "setting": "EcThrRS_G463S [4]; BN, Log10 Conc. 3.477, G463S, replicates, sheet Fig.7d", "result": "72.021 and 67.252 and 61.642 and 63.732"}, {"measurement": "ATP hydrolysis activity, inhibitory curve data point", "setting": "EcThrRS_WT; Log10 Conc. 1.477, WT", "result": "101.322 and 78.096 and 79.643 and 84.982"}, {"measurement": "ATP hydrolysis activity, inhibitory curve data point", "setting": "EcThrRS_WT; Log10 Conc. 2.000, WT", "result": "101.576 and 82.194 and 100.286 and 100.117"}, {"measurement": "ATP hydrolysis activity, inhibitory curve data point", "setting": "EcThrRS_WT; Log10 Conc. 2.477, WT", "result": "72.956 and 78.844 and 97.078 and 88.856"}, {"measurement": "ATP hydrolysis activity, inhibitory curve data point", "setting": "EcThrRS_WT; Log10 Conc. 3.000, WT", "result": "-7.239 and -12.609 and 12.089 and 13.133"}, {"measurement": "ATP hydrolysis activity, inhibitory curve data point", "setting": "EcThrRS_WT; Log10 Conc. 3.477, WT", "result": "-29.715 and 1.779 and -2.712 and 18.045"}, {"measurement": "ATP hydrolysis activity, inhibitory curve data point", "setting": "EcThrRS_WT; Log10 Conc. 4.000, WT", "result": "-14.823 and -17.346 and -12.025 and -9.555"}, {"measurement": "IC50", "setting": "EcThrRS_WT; in the presence of 2 μM ATP and 20 μM L-Thr", "result": 559, "unit": "nM"}, {"measurement": "decrease of inhibitory effect vs EcThrRS_WT", "setting": "EcThrRS_G463A [5]; 2 μM ATP and 20 μM L-Thr", "result": "more than 20 fold"}, {"measurement": "ATP hydrolysis activity, inhibitory curve data point", "setting": "EcThrRS_G463A [5]; Log10 Conc. 1.477, G463A", "result": "95.000 and 86.999 and 114.196 and 92.149"}, {"measurement": "ATP hydrolysis activity, inhibitory curve data point", "setting": "EcThrRS_G463A [5]; Log10 Conc. 2.000, G463A", "result": "87.423 and 89.051 and 94.722 and 94.776"}, {"measurement": "ATP hydrolysis activity, inhibitory curve data point", "setting": "EcThrRS_G463A [5]; Log10 Conc. 2.477, G463A", "result": "87.400 and 82.253 and 93.320 and 93.112"}, {"measurement": "ATP hydrolysis activity, inhibitory curve data point", "setting": "EcThrRS_G463A [5]; Log10 Conc. 3.000, G463A", "result": "81.982 and 81.596 and 85.557 and 86.320"}, {"measurement": "ATP hydrolysis activity, inhibitory curve data point", "setting": "EcThrRS_G463A [5]; Log10 Conc. 3.477, G463A", "result": "63.653 and 64.234 and 69.634 and 68.650"}, {"measurement": "ATP hydrolysis activity, inhibitory curve data point", "setting": "EcThrRS_G463A [5]; Log10 Conc. 4.000, G463A", "result": "68.712 and 73.186 and 66.040 and 70.648"}]}]}
